Experimental data from patent US11078245B2, “Colon and pancreas cancer peptidomimetics” (PRECISION BIOLOGICS, INC., priority 2010, dated 2021).
Entries after “also recorded” stand apart in the source; their conditions may differ. Ends that are not written are not given here.

Legend:
NEO-101 antibody = test: 4-1-4-C12-KLH binding ELISA
NPC-1C antigen = test: 4-1-4C12-KLH competitive ELISA; type: binding
Experimental: (§1) An exemplary NPC-1 antigen peptidomimetic, 4-1-4C12 (SEQ ID NO: 5) was conjugated to KLH (Keyhole Limpit Hemocyannin) (“4-1-4-C12-KLH”). […] Further, 4-1-4C12-KLH blocks NPC-1 binding to NPC-1C antigen specifically in competitive ELISA. After confirming the function of 4-1-4C12-KLH, 4-1-4C12-KLH was injected into rabbits. The immunized serum after third injection was tested by binding ELISA to check the function of 4-1-4C12-KLH induced antibody. The plate was coated with 4-1-4C12 peptide or CFPAC1 sup, diluted serum was added to the washed and blocked the plate. Bound rabbit IgG was detected by donkey anti-rabbit IgG-HRP.

4-1-4C12 peptide = test: Rabbit immunization, serum binding ELISA; type: in vivo, rabbits; conditions: rabbit serum after third injection
Experimental: as §1

CFPAC1 sup = biological target: T1, CFPAC1 sup (Homo sapiens, UniProt P98088); test: Rabbit immunization, serum binding ELISA; type: in vivo, rabbits; conditions: rabbit serum after third injection
T1 construct: endogenous in cells; host or cells: CFPAC-1 (human pancreatic tumor cell line); cells or serum-free conditioned medium
Experimental: as §1

CFPAC1 cells = test: NEO-101-coupled Dynal beads rosette assay; type: cell-based, human
Experimental: The M13 clones identified by the biopanning were also immunoassayed using magnetic beads. Aliquots of 5 μl M13 phage (10^11/10 μl) were mixed with 10 μl NEO-101-coupled Dynal® beads at RT for 20 min on a rotator. CFPAC1 cells (30 μl of 10^6 cells/ml) were added and incubated at 4° C. for 30 min. Rosetted cells were counted (>8 beads/cell).

NEO-101 = test: Biotinylated peptide binding ELISA; conditions: biotinylated peptide on NEO-101 coated plate
Experimental: To solve the poor binding of peptides to 96 well plate, peptides were biotinylated using EZ-link micro NHS Biotinylation kit (Pierce Cat #21955), and labeling efficiency checked by dot blot (50%). The biotinylated peptide binding was analyzed in ELISA by adding 100 μl/well of NEO-101 (1 μg/ml) in CBS buffer to 96 well plate and incubating at 4° C. overnight, followed by three washes with TBST (0.05% Tween). The solution was blocked with 200μ/of 1% milk in TBS at RT for 20 min. Aliquots of 100 μl peptide-biotin ([…]) in 0.1% milk-TBS were added, and incubated at RT of 2 hr, followed by three washes with TBST. Streptavidin-HRP (100 μl of 1:2000 diluted in 1:10 diluted blocking buffer) was added, and the wells incubated at RT for 1 hr, followed by three washed. TMB was then added, and the wells were read at 450 nm. Positive controls for NPC-1C binding used 4B6-biotin. The results are shown in FIG. 11, which indicates biotinylated peptides bind to NPC-1C coated plate.

Colon Ag = test: ELISA of NEO-101 binding inhibition by peptides against Colon Ag; set-up: species or system human
Experimental: An ELISA analysis of the NEO-101 binding inhibition by peptide 4-1-3-C9 and 4-1-4-C12 against Colon Ag was conducted. Aliquots of 100 μl/well Colon Ag (3 μg/ml in CBS buffer) in 96 well plate were incubated at 4° C. overnight, and the wells washed three times with TBST (0.05% Tween). The wells were blocked with 200 μl of 1% milk at RT for 1 hour. A pre-mix of NEO-101-biotin and test peptide was added at 100 μl/well and incubated at RT of 1 hour, followed by three washes with TBST. Streptavidin-HRP (100 μl of 1:2000 dilution) was added and the reaction incubated at RT for 1 hour, and the wells washed three time. TMB was added, and the wells were read at 450 nm. The control was NEO-101-biotin.

[1] = system: CFPAC1 culture supernatant; test: Peptide competition ELISA on CFPAC1 culture supernatant-coated plates; type: binding, human
Description: FIG. 15A is a bar graph showing the percent blocking of NEO-101 by peptides (identified by biopanning an M13 phage library) on CFPAC1 culture supernatant-coated plates. FIG. 15B is a bar graph of OD values showing blocking of NEO-101 by peptides (identified by biopanning an M13 phage library) on CFPAC1 culture supernatant-coated plates.
Next, the inhibition of NEO-101 beads binding to CFAC1 Cells (rosetted cells) by peptides 4-1-4C12 and 4-1-4C12-R2 was investigated, as shown in FIG. 14A. FIG. 14B was the results from positive control with 4B6 in competitive beads assay. […] Therefore, the peptide 4-1-4-C12 is a peptidomimetic of the NPC-1 epitope and may be used to elicit a NPC-1 specific antibodies.

| Substance | binding to NEO-101 antibody (NEO-101 antibody) | blocking of NPC-1 binding to NPC-1C antigen (NPC-1C antigen) | immunized serum binding to 4-1-4C12 peptide (4-1-4C12 peptide) | immunized serum binding to CFPAC1 supernatant (CFPAC1 sup) | blocking of NEO-101-coupled beads binding to CFPAC1 cells (CFPAC1 cells) | Positive rosette cells (%) (CFPAC1 cells; Dynal beads coupled with NEO-101, premixed with M13 clone) | NEO-101 binding (NEO-101) | Blocking of NEO-101 antibody binding to colon Ag (Colon Ag) | competition against bound CFPAC1 antigen with NEO-101 binding [1] |
| --- | --- | --- | --- | --- | --- | --- | --- | --- | --- |
| 4-1-4-C12-KLH: 4-1-4C12 (SEQ ID NO: 5) conjugated to KLH (Keyhole Limpit Hemocyannin) (SLPDDWFRYINY; also: conjugated to KLH (keyhole limpet hemocyanin)) | binds to NEO-101 antibody | blocks | binds to 4-1-4C12; also recorded: dose dependent manner | bind to CFPAC1 human pancreatic cell line supernatant; also recorded: dose dependent manner |  |  |  |  |  |
| YSHSSLPDDWFRYINYGGGS (NPC-1 epitope peptidomimetic) [Peptide 4-1-4-C12] |  |  |  |  | blocked | 0% | Yes | Yes | higher inhibition in low concentration comparing with 4-1-3C9 |
